The results in this text go back to US9187471B2, “Pyrido [4,3-b] indole and pyrido [3,4-b] indole derivatives and methods of use” (Medivation Technologies, Inc., priority 2010, dated 2015).

For assay [1], the target named is T1, human recombinant serotonin (5-Hydroxytryptamine) 5-HT5A receptor (Homo sapiens, UniProt P47898).
T1 construct: expressed in transfected cells; host or cells: CHO-K1
As to the kind of experiment: Serotonin 5-HT5A radioligand binding ([3H]LSD). Conditions: compound at 0.1 μM; read-out: Inhibition of ligand binding, Serotonin 5-HT5A (percent inhibition of specific binding). Here is the method:
Compounds of the invention were incubated with 1.7 nM [^3H]Lysergic acid diethylamide (LSD) for 60 min at 37° C. […] Receptor proteins were filtered and washed, the filters were counted to determine [^3H]LSD specifically bound.

Assay [2] concerns the target T2, human recombinant adrenergic α2C receptor (Homo sapiens, UniProt P18825).
T2 construct: expressed in transfected cells; host or cells: insect Sf9 cells
T2 sequence (P18825 1-462): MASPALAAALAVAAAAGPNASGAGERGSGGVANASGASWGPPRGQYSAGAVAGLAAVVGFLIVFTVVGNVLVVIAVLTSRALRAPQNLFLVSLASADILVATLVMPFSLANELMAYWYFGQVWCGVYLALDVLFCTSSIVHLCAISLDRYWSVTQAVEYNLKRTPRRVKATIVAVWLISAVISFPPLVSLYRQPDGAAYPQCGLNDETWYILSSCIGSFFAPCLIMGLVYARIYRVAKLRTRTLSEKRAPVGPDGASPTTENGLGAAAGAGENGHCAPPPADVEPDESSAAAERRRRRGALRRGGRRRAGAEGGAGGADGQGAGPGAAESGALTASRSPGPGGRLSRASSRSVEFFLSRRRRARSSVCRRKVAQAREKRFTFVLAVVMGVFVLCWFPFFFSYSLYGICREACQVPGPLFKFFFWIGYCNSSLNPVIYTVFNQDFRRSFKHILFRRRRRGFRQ
As to the kind of experiment: Adrenergic α2C radioligand binding ([3H]MK-912). As to conditions: read-out: Adrenergic (0.1 μM) a2C, percent inhibition of specific binding; compound at 0.1 μM; 1 nM [3H]MK-912. In a few lines: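 Membranes from Sf9 cells expressing the human receptor, in 50 mM Tris-HCl pH 7.4 with 12.5 mM MgCl2 and 2 mM EDTA, incubated with compound and 1 nM [3H]MK-912 for 60 min at 25 °C. Non-specific binding defined with 10 μM WB-4101. Filter-bound radioactivity counted; percent inhibition of specific binding reported.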

Assay [3] addresses T3, human recombinant serotonin (5-Hydroxytryptamine) 5-HT2A receptor (Homo sapiens, UniProt P28223).
T3 construct: expressed in transfected cells; host or cells: CHO-K1
As to the kind of experiment: Serotonin 5-HT2A radioligand binding ([3H]Ketanserin). As to conditions: compound at 0.1 μM; read-out: Inhibition of ligand binding, Serotonin 5-HT2A (percent inhibition of specific binding). As to the method:
Compounds of the invention were incubated with 0.5 nM [^3H]Ketanserin for 60 min at 25° C. Non-specific binding was estimated in the presence of 1 μM Mianserin. Receptor proteins were filtered and washed, the filters were then counted to determine [^3H]Ketanserin specifically bound.

The target in assay [4] is T4, human recombinant serotonin (5-Hydroxytryptamine) 5-HT6 receptor (Homo sapiens, UniProt P50406).
T4 construct: expressed in transfected cells; host or cells: HeLa
As to the kind of experiment: Serotonin 5-HT6 radioligand binding ([3H]LSD). Conditions: compound at 0.1 μM; read-out: Inhibition of ligand binding, Serotonin 5-HT6 (percent inhibition of specific binding). The source says: Receptor proteins were filtered and washed, the filters were then counted to determine [3H]LSD specifically bound.

The target in assay [5] is T5, human recombinant dopamine D2L receptor (Homo sapiens, UniProt P14416).
T5 construct: expressed in transfected cells; host or cells: CHO
As to the kind of experiment: Dopamine D2L radioligand binding ([3H]Spiperone). As to conditions: read-out: Dopamine D2L (1 μM), percent inhibition of specific binding; compound at 1 μM; 0.16 nM [3H]Spiperone. As to the method: Non-specific binding was estimated in the presence of 10 μM Haloperidol. Receptor proteins were filtered and washed, the filters were then counted to determine [^3H]Spiperone specifically bound.

Assay [6] addresses T6, human recombinant serotonin (5-Hydroxytryptamine) 5-HT7 receptor (Homo sapiens, UniProt P34969).
T6 construct: expressed in transfected cells; host or cells: CHO
As to the kind of experiment: Serotonin 5-HT7 radioligand binding ([3H]LSD). Conditions: compound at 0.1 μM; read-out: Inhibition of ligand binding, Serotonin 5-HT7 (percent inhibition of specific binding). As to the method:
Lysergic acid diethylamide (LSD) for 120 min. at 25° C. […] Receptor proteins were filtered and washed, the filters were then counted to determine [^3H]LSD specifically bound.

Assay [7] addresses T7, rat adrenergic α1A receptor (Rattus norvegicus, UniProt P43140).
T7 construct: rat adrenergic α1A receptor obtained from Wistar Rat submaxillary glands; from tissue; host or cells: Wistar rat submaxillary glands
T7 sequence (P43140 1-466): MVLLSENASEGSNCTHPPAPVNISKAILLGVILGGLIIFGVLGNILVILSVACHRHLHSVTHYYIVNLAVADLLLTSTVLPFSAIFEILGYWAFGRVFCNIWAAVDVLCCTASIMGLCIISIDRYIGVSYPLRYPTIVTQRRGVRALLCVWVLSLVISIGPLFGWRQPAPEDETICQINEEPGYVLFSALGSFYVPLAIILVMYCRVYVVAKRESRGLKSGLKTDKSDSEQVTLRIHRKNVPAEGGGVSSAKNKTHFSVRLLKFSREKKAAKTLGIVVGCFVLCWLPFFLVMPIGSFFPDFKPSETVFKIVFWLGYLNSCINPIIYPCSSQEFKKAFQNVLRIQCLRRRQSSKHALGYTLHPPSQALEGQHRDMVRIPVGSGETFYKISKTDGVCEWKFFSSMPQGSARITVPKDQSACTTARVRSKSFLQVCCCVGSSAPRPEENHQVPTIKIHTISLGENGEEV
As to the kind of experiment: Adrenergic α1A radioligand binding ([3H]Prazosin). As to conditions: read-out: Adrenergic (0.1 μM) a1A, percent inhibition of specific binding; compound at 0.1 μM; 0.25 nM [3H]Prazosin. In a few lines:
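Wistar rat submaxillary gland receptor in 50 mM Tris-HCl pH 7.4 with 0.5 mM EDTA, incubated with compound and 0.25 nM [3H]Prazosin for 60 min at 25 °C.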

The inhibition is the relative decrease from the control value, in per cent.

T6 sequence (P34969 whole entry): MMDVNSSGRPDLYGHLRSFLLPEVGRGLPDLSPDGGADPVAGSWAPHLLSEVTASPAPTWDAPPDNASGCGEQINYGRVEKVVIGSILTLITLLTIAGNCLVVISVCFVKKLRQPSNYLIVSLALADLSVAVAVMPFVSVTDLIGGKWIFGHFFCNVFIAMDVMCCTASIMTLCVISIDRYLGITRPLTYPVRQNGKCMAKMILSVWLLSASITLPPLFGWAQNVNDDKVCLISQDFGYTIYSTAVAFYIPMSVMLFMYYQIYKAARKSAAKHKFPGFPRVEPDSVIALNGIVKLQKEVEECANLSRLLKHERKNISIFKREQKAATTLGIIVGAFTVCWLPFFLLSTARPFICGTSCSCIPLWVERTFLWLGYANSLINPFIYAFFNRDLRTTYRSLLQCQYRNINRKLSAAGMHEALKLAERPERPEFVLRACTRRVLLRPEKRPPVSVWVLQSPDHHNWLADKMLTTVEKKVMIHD
T5 sequence (P14416 whole entry): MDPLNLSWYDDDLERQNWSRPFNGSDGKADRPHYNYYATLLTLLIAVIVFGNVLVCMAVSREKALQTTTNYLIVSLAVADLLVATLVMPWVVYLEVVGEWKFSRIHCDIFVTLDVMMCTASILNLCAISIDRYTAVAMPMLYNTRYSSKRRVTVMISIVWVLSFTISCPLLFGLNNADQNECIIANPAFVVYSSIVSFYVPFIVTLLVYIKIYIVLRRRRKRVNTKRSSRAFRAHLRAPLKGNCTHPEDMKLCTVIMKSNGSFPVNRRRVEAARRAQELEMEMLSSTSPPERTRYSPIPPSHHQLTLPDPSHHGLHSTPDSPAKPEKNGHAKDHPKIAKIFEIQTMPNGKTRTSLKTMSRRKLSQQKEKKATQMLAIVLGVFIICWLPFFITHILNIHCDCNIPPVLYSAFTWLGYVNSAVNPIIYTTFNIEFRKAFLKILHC
T3 sequence (P28223 whole entry): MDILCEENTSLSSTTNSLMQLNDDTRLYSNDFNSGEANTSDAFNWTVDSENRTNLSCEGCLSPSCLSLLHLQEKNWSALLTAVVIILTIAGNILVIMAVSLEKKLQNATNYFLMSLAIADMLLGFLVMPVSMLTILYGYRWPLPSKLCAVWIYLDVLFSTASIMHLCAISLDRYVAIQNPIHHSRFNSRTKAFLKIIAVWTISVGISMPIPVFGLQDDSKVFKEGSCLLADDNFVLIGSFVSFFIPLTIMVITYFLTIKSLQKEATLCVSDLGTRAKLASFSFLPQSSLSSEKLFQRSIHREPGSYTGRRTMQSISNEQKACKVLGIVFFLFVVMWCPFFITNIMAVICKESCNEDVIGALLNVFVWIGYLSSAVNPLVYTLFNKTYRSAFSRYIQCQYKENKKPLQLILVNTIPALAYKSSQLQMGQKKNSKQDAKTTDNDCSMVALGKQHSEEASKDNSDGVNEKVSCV
T1 sequence (P47898 whole entry): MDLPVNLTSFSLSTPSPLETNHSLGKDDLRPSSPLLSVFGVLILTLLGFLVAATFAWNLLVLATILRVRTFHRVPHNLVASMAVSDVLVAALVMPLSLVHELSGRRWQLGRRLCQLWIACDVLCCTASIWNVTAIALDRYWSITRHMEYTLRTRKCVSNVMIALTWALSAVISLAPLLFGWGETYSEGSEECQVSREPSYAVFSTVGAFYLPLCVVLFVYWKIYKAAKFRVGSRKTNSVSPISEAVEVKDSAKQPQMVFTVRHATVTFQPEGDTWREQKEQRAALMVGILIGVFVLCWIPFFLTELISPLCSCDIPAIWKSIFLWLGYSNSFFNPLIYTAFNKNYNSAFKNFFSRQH
T4 sequence (P50406 whole entry): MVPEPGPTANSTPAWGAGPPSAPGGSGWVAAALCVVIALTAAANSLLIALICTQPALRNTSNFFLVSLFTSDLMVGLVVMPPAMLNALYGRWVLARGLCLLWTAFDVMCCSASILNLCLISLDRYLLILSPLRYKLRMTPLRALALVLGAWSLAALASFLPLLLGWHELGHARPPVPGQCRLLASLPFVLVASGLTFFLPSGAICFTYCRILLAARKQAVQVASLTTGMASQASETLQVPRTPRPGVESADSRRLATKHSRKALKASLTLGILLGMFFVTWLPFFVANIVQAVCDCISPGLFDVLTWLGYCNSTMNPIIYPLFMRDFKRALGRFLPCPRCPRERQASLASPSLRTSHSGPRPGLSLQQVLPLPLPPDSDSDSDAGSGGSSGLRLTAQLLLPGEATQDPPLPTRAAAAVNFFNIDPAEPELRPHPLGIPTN

Regarding `Cc1ccc2c(c1)c1c(n2-c2cccc(-c3cncc4ccccc34)c2)CCN(C)C1` [Compound No. 67, 5-(3-(isoquinolin-4-yl)phenyl)-2,8-dimethyl-2,3,4,5-tetrahydro-1H-pyrido[4,3-b]indole], the inhibition at 0.1 µM was 39% in assay [1]; 8% in assay [2]; 75% in assay [3]; 29% in assay [4]; 28% in assay [6]; 1% in assay [7]. Also, the inhibition at 1 µM in assay [5] was 61%.

Take `Cc1ccc2c(c1)c1c(n2-c2cscc2-c2ccc3cnccc3c2)CCN(C)C1` [Compound No. 68]: the inhibition at 0.1 µM in assay [1] is 78%; in assay [2] it was 29%; in assay [3] it was 35%; in assay [4], 18%; in assay [6], 99%; in assay [7], 71%. Also, in assay [5], the inhibition at 1 µM was found to be 9%.

`Cc1ccc2c(c1)c1c(n2-c2cccc(-c3cccn3C)c2)CCN(C)C1` [Compound No. 69, 2,8-dimethyl-5-(3-(1-methyl-1H-pyrrol-2-yl)phenyl)-2,3,4,5-tetrahydro-1H-pyrido[4,3-b]indole]: the inhibition at 0.1 µM was 36% in assay [1]; -4% in assay [2]; 99% in assay [3]; 21% in assay [4]; 25% in assay [6]; 8% in assay [7]. Also, the inhibition at 1 µM in assay [5] stood at 12%.

On to `Cc1ccc2c(c1)c1c(n2-c2cccc(-c3cn[nH]c3)c2)CCN(C)C1` [Compound No. 70, 5-(3-(1H-pyrazol-4-yl)phenyl)-2,8-dimethyl-2,3,4,5-tetrahydro-1H-pyrido[4,3-b]indole], for which the inhibition at 0.1 µM in assay [1] is 43%; in assay [2], 8%; in assay [3], 98%; in assay [4], 0%; in assay [6], 50%; in assay [7] it was 5%. In assay [5], the inhibition at 1 µM turned out to be 15%.

Turning to `CNC(=O)c1ccc(-c2ccccc2-n2c3c(c4cc(C)ccc42)CN(C)CC3)cn1` [Compound No. 71, 5-(2-(2,8-dimethyl-3,4-dihydro-1H-pyrido[4,3-b]indol-5(2H)-yl)phenyl)-N-methylpicolinamide], the inhibition at 0.1 µM in assay [1] was 29%; in assay [2], -1%; in assay [3] it was 1%; in assay [4], -7%; in assay [6], 27%; in assay [7] it was 65%. Moreover, the inhibition at 1 µM in assay [5] was determined as 10%.

For the compound `CNC(=O)c1ccc(-c2ccccc2-n2c3c(c4cc(C)ccc42)CN(C)CC3)cc1` [Compound No. 72, 2′-(2,8-dimethyl-3,4-dihydro-1H-pyrido[4,3-b]indol-5(2H)-yl)-N-methylbiphenyl-4-carboxamide], the inhibition at 0.1 µM was 14% in assay [1]; 1% in assay [2]; 35% in assay [3]; 3% in assay [4]; 30% in assay [6]; 36% in assay [7]. The inhibition at 1 µM in assay [5] is 16%.

Turning to `CNC(=O)c1ccc(-c2cscc2-n2c3c(c4cc(C)ccc42)CN(C)CC3)cn1` [Compound No. 73], the inhibition at 0.1 µM in assay [1] is 48%; in assay [2], 2%; in assay [3], 64%; in assay [4] it was 21%; in assay [6], 66%; in assay [7] it was 71%. Further, in assay [5], the inhibition at 1 µM came to 21%.

Take `Cc1ccc2c(c1)c1c(n2-c2ccc3ccncc3c2)CCN(C)C1` [Compound No. 74, 5-(isoquinolin-7-yl)-2,8-dimethyl-2,3,4,5-tetrahydro-1H-pyrido[4,3-b]indole]: the inhibition at 0.1 µM in assay [1] was determined as 21%; in assay [2] it was 11%; in assay [3] it was 34%; in assay [4], 14%; in assay [6], 2%; in assay [7], 52%. The inhibition at 1 µM in assay [5] was determined as 56%.

Consider `CNC(=O)c1ccc(-c2cccc(-n3c4c(c5cc(C)ccc53)CN(C)CC4)c2)cn1` [Compound No. 75, 5-(3-(2,8-dimethyl-3,4-dihydro-1H-pyrido[4,3-b]indol-5(2H)-yl)phenyl)-N-methylpicolinamide], for which the inhibition at 0.1 µM was 29% in assay [1]; -3% in assay [2]; 55% in assay [3]; 4% in assay [4]; 21% in assay [6]; 21% in assay [7]. The inhibition at 1 µM in assay [5] was found to be 18%.

Take `Cc1ccc2c(c1)c1c(n2-c2cscc2-c2ccc(S(C)(=O)=O)cc2)CCN(C)C1` [Compound No. 76]: the inhibition at 0.1 µM worked out at 90% in assay [1]; 79% in assay [2]; 30% in assay [3]; 14% in assay [4]; 85% in assay [6]; 82% in assay [7]. Moreover, in assay [5], the inhibition at 1 µM was 11%.

For `Cc1ccc2c(c1)c1c(n2-c2ccc3c(c2)CCN(C=O)C3)CCN(C)C1` [Compound No. 77, 6-(2,8-dimethyl-1,2,3,4-tetrahydro-pyrido[4,3-b]indol-5-yl)-3,4-dihydro-1H-isoquinoline-2-carbaldehyde], the inhibition at 0.1 µM in assay [1] is 21%; in assay [2], 0%; in assay [3], 36%; in assay [4] it was 5%; in assay [6] it was 35%; in assay [7], 20%. Further, the inhibition at 1 µM in assay [5] was determined as 14%.

As for `CNC(=O)c1cc(-n2c3c(c4cc(C)ccc42)CN(C)CC3)cs1` [Compound No. 78], the inhibition at 0.1 µM in assay [1] was 24%; in assay [2] it was 3%; in assay [3], 59%; in assay [4], 17%; in assay [6], 22%; in assay [7], 16%. Also, the inhibition at 1 µM in assay [5] came to 1%.

In the case of `Cc1ccc2c(c1)c1c(n2-c2cscc2-c2ccc(C)s2)CCN(C)C1` [Compound No. 79], the inhibition at 0.1 µM in assay [1] worked out at 93%; in assay [2] it was 77%; in assay [3], 77%; in assay [4] it was 50%; in assay [6] it was 98%; in assay [7] it was 79%. Further, in assay [5], the inhibition at 1 µM came out at 30%.
